Where “and” joins values, the source holds several entries; their conditions need not be identical. Equal entries are not always repeated. Where two headings read alike, the source gives them in different places.
Legend:
K562 cells = test: K562 cell viability after TET exposure (trypan blue); assay type: cell-based, human; conditions: 24 hours
Experimental: Briefly, the method for the first portion of the study was as follows: K562 cells were grown and maintained in medium (RPMI, 10% FBS, Pen Strep and […]). Cells were then exposed to TET, 0, 0.1, 1, 5, 10, 20 & 40 μM for 24 hours at 37° C. Following drug exposure, cell viability was checked using trypan blue, followed by cell lysis. Supernatants were collected and test for protein concentration using a Pierce BCA kit. The protein assay tubes were read on a Spectramax at 562 nm and Softmax@ software was used for protein concentration analysis.
The effect of TET treatment on K562 percent cell viability is depicted in Table 2 and is graphically illustrated in FIG. 2.

beta-Actin = beta-Actin level in K562 cell extracts by western blot; assay type: cell-based, human; conditions: K562 cells treated with up to 40 uM
Experimental: Briefly, the method to quantitate β-catenin protein by western blot was as follows: Extracts of K562 cells (untreated and treated with various concentrations of tetrandrine) were concentrated to 0.4 ml using Centricon-3 column to yield a protein concentration of approximately 2 mg/ml. Samples were mixed with 5× Laemmli buffer and loaded on 8-16% Tris-Glycine gradient gel, then polyacrylamide gel electrophoresis (PAGE) was run at 85 volts for 100 minutes at 6° C. and proteins were transferred on PVDF membrane at 70 Volts for 85 minutes at 8° C. Membrane was blocked with 5% milk in Tris-buffered Saline containing 0.1% TW-20 (TBST). Membrane was incubated with primary antibody for 18 hours at 4° C. followed by 3 washes, 5 minutes each, with TBST and incubated with secondary antibody in TBST for 2 hours at 25° C. The membrane was washed again with TBST as described above and incubated with ECL-2 substrate for 5 minutes and scanned on Kodak Image Station. After scan, blot was stripped of primary and secondary antibodies and re-probed with anti-beta Actin antibody as described above. Protein bands in WB images were quantitated using Molecular Imaging software pack MIS-4.0 software and tabulated in Excel spreadsheet.

CAMKII gamma = target: T1, CAMKII gamma (Homo sapiens, UniProt Q13555); test: CAMKII gamma kinase activity, ADP Glo (Promega); assay type: biochemical; conditions: for CAMKII gamma kinase activity inhibition (in words): 10 or 50 uM ATP
T1 construct: purchased Promega V3531
Experimental: An enzymatic study was conducted to evaluate the inhibition of CAMKII gamma by ES-3000 (Tetrandrine). CAMKII gamma kinase activity was measured using […] purchased from Promega following the Promega protocol. CAMKII enzyme system purchased from Promega (V3531). ADP Glo was used for detection. Assay optimized for linearity of protein and time. Conditions for inhibitor screening 25 ng CAMKII, 20 min. incubations, inhibitor or DMSO (5%) at RT in 20 uL total volume. Inhibitor, ATP (10 or 50 uM), substrates and buffer added to tubes and reactions started with enzyme. […] Reactions terminated at 20 min. by adding ADP Glo reaction following manufactures instructions. All reactions were done in duplicate. Calculations of percent (%) inhibition determined by dividing the mean activity at each condition by the mean of the DMSO control times 100.

hERG = hERG (Homo sapiens, UniProt Q12809); test: hERG inhibition, IonWorks HT electrophysiology in CHO cells stably transfected with hERG; conditions: for IC50: read-out: hERG IC50, CHO cells stably transfected with hERG, 300 sec contact
Experimental: The purpose of this study was to evaluate the potential of a test article to inhibit hERG. The experiments are performed on an Ion Works™ HT instrument (Molecular Devices Corporation), which automatically performs electrophysiology measurements in […] single cells simultaneously in aspecialized 384-well plate (PatchPlate). All cell suspensions, buffers and test compound solutions are at room temperature during the experiment. The cells used are Chinese hamster ovary (CHO) cells stably transfected with hERG (cell-line obtained from Cytomyx, UK). A single-cell suspension is prepared in extracellular solution (Dulbecco's phosphate buffered saline with calcium and magnesium pH 7-7.2) and aliquots added automatically to each well of a PatchPlate™. The cells are then positioned over a small hole at the bottom of each well by applying a vacuum beneath the plate to form an electrical seal. The vacuum is applied through a single compartment common to all wells which is filled with intracellular solution (buffered to pH 7.2 with HEPES). The resistance of cach seal is measured via a common ground-electrode in the intracellular compartment and individual electrodes placed into each of the upper wells. Electrical access to the cell is then achieved by circulating a perforating agent, amphotericin, underneath the PatchPlate and then measuring the pre-compound hERG current. An electrode is positioned in the extracellular compartment and a holding potential of −80 mV applied for 15 sec. The hERG channels are then activated by applying a depolarizing step to +40 mV for 5 sec and then clamped at −50 mV for 4 sec to elicit the hERG tail current, before returning to −80 mV for 0.3 sec. Test compound is then added automatically to the upper wells of the PatchPlateTM from a 96-well microtitre plate containing a range of concentrations of each compound. […] The test compound is left in contact with the cells for 300 sec before recording currents using the same voltage-step protocol as in the pre-compound scan. […] Each concentration is tested in 4 replicate wells on the PatchPlate™. […] Post-compound currents are then expressed as a percentage of pre-compound currents and plotted against concentration for each compound (FIG. 8). Testing was conducted by Cyprotex US, LLC, Watertown, MA.

[1] = cited from earlier work
leukemia cell lines = conditions: cited from earlier work
[2] = tested on: colorectal (CT-26) xenografts; conditions: colorectal (CT-26) mouse xenografts; cited from earlier work
[3] = IV, cited from earlier work

hERG, sequence (Q12809 whole entry): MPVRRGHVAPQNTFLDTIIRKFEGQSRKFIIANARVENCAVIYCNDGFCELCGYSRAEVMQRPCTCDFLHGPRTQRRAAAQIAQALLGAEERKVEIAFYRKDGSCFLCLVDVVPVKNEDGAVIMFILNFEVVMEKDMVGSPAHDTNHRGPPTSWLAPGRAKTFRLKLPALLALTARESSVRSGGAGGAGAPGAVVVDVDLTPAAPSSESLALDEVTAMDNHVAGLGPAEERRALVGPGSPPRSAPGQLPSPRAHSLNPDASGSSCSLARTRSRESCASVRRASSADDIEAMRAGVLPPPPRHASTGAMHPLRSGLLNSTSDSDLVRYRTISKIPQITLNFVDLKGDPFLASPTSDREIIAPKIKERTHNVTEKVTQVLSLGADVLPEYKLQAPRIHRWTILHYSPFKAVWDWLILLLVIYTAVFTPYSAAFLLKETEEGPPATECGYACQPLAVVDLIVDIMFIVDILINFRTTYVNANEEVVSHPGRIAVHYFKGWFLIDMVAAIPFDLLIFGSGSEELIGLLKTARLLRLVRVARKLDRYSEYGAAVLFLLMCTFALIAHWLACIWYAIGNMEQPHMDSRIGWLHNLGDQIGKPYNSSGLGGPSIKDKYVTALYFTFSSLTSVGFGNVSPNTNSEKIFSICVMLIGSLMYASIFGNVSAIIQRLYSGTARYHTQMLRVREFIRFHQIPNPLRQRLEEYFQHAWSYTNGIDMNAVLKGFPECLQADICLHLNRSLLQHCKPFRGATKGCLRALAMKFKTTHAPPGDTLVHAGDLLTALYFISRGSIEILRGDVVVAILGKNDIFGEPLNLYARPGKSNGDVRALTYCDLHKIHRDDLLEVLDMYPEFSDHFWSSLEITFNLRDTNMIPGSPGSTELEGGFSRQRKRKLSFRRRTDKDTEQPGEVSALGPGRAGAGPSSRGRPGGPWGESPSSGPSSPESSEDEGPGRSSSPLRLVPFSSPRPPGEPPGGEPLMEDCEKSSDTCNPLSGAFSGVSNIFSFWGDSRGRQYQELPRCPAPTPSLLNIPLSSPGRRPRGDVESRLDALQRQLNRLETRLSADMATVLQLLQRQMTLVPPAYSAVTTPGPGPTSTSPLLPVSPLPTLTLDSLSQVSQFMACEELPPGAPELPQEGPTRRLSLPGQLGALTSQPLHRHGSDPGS
T1 sequence (Q13555 whole entry): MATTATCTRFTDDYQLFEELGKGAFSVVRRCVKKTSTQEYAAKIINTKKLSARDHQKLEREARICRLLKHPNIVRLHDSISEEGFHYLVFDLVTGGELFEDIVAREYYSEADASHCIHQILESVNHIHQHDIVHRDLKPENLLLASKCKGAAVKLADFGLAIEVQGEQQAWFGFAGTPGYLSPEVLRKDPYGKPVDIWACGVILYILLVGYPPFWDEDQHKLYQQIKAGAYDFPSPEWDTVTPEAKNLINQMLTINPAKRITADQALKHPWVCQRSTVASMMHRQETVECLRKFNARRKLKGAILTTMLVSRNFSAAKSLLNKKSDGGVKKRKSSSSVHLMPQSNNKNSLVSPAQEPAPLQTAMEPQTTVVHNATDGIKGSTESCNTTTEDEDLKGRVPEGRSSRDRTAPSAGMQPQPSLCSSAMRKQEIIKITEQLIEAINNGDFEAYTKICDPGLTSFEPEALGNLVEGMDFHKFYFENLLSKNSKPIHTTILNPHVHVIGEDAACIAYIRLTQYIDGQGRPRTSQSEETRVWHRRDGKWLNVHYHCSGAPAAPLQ

6,6′,7,12-tetramethoxy-2,2′-dimethyl-berbaman [ES-3000]
% Viability (K562 cells; 0.1 μM): 82.4% | % Viability (K562 cells; 1 μM): 79.2% | % Viability (K562 cells; 5 μM): 81.8% | % Viability (K562 cells; 10 μM): 79.7% | % Viability (K562 cells; 20 μM): 76.5% | % Viability (K562 cells; 40 μM): 56.4% | beta-Actin level (quantitation of protein bands) (beta-Actin): not affected significantly | % inhibition (CAMKII gamma; 30 uM, 10 uM ATP): 29.1% and 29% | CamKIIγ activity, mean (CAMKII gamma; 30 uM, 10 uM ATP): 3.09 units | CamKIIγ activity, units (duplicates) (CAMKII gamma; 30 uM, 10 uM ATP): 2.75 units and 3.43 units | kinase activity, % of DMSO control (CAMKII gamma; 30 uM, 10 uM ATP): 71% | % inhibition (CAMKII gamma; 30 uM, 50 uM ATP): 15% | CamKIIγ activity, mean (CAMKII gamma; 30 uM, 50 uM ATP): 10.55 units | CamKIIγ activity, units (duplicates) (CAMKII gamma; 30 uM, 50 uM ATP): 10.4 units and 10.7 units | kinase activity, % of DMSO control (CAMKII gamma; 30 uM, 50 uM ATP): 85% | % inhibition (CAMKII gamma; 100 uM, 10 uM ATP): 34.2% and 34% | CamKIIγ activity, mean (CAMKII gamma; 100 uM, 10 uM ATP): 2.87 units | CamKIIγ activity, units (duplicates) (CAMKII gamma; 100 uM, 10 uM ATP): 2.5 units and 3.24 units | kinase activity, % of DMSO control (CAMKII gamma; 100 uM, 10 uM ATP): 66% | % inhibition (CAMKII gamma; 100 uM, 50 uM ATP): 36% | CamKIIγ activity, mean (CAMKII gamma; 100 uM, 50 uM ATP): 7.955 units | CamKIIγ activity, units (duplicates) (CAMKII gamma; 100 uM, 50 uM ATP): 8.81 units and 7.1 units | kinase activity, % of DMSO control (CAMKII gamma; 100 uM, 50 uM ATP): 64% | % inhibition (CAMKII gamma; 250 uM, 10 uM ATP): 90.6% and 91% | CamKIIγ activity, mean (CAMKII gamma; 250 uM, 10 uM ATP): 0.41 units | CamKIIγ activity, units (duplicates) (CAMKII gamma; 250 uM, 10 uM ATP): 0.34 units and 0.48 units | kinase activity, % of DMSO control (CAMKII gamma; 250 uM, 10 uM ATP): 9% | CAMKII gamma kinase activity inhibition (in words) (CAMKII gamma): inhibited CAMKII gamma kinase activity in a dose dependent manner | CAMKII gamma kinase activity inhibition (in words) (CAMKII gamma; listed as TET): inhibited the activation of CaMKIIγ in a dose dependent manner | IC50 (hERG): 5.15 µM | IC50 (hERG; listed as TET): 5.2 µM | plasma level above which QT prolongation might be expected (hERG; subjects): above 249 ng/mL | safety margin for cardiac conduction-related toxicity (hERG IC50 versus human Cmax) (hERG; utilizing Cmax from previous human clinical experience): 13 fold | protein binding [1]: highly protein bound | 50% growth inhibition (Log GI50) (leukemia cell lines; NCI 60 cell line screen): −5.0 to −6.6 | GI50 (leukemia cell lines; read-out: 50% growth inhibition (GI50), NCI 60 cell line screen): 0.25 to 10 µM | tumor growth [2]: reduced tumor growth by inducing apoptosis | recommended dose for a Phase II study ([3]; daily ×5, repeated every 2 weeks): 200 mg/m2 | recommended dose for a Phase II study ([3]; single dose repeated weekly): 300 mg/m2
